Assay results as given in paper PMC10053710, “Influence of Lipidation Pattern of the KR12 Fragment of Peptide LL-37 on Its Antibacterial and Hemolytic Activities” (International Journal of Molecular Sciences, 2023).
In brackets after ≈: the same amount, converted by molar mass. Where a SMILES comes first, the peptide text is derived from it. The star is where a group is joined. Benzoyl(4-Ph) = O=C(c1ccc(-c2ccccc2)cc1)*; Butanoyl(4-Ph) = O=C(CCCc1ccccc1)*; Octanoyl = CCCCCCCC(=O)*; X3 = CCCCC(CC)C(=O)*; Butyryl = CCCC(=O)*

Assays:
S. aureus ATCC 25923 = format: cell-based, Staphylococcus aureus; details: ATCC 25923, 18 h
Experimental: (§1) Tests of the antibacterial activity were carried out as we just described. Briefly, for assays, the following strains of ESKAPE bacteria were chosen: Acinetobacter baumannii ATCC BAA-1605, Enterococcus faecium ATCC 700221, Klebsiella aerogenes ATCC 13048 (formerly Enterobacter aerogenes), Klebsiella pneumoniae ATCC 700603, and Pseudomonas aeruginosa ATCC 9027. Moreover, the reference strains of Staphylococcus aureus were used: S. aureus ATCC 25923, S. aureus ATCC 6538, S. aureus ATCC 33591 (MRSA), S. aureus ATCC 9144, and S. aureus ATCC 12598. Before experiments, all the strains were stored at −80 °C in Roti®-Store cryo vials (Carl Roth GmbH, Karlsruhe, Germany). To evaluate the activity of the compounds, bacteria were transferred into fresh Mueller–Hinton medium (Becton Dickinson, Warszawa, Poland) and incubated for 24 h at 37 °C. In the next step, bacterial inoculums were seeded on Mueller–Hinton agar plates (BioMaxima SA, Lublin, Poland) and incubated again for 24 h. The MIC values were determined using the broth microdilution method according to the Clinical and Laboratory Standards Institute Protocol. The initial inoculums of bacteria (0.5 × 10^5 colony forming units (CFU)/mL) prepared in Mueller–Hinton broth were exposed to the ranging concentrations of peptides (1–512 µg/mL). The experiments were conducted on 96-well microtiter plates, with a final volume of 100 µL. The inoculum densities were checked spectrophotometrically (Multiskan™ GO Microplate Spectrophotometer, Thermo Scientific, Waltham, MA, USA) at 600 nm. The results were read after incubation for 18 h at 37 °C. The MIC values were the lowest concentration at which a visible growth of microorganisms was inhibited. All experiments were conducted in triplicate. Moreover, positive (growth) and negative (sterility) controls were included.

[1] = tested on: S. aureus ATCC 33591 (MRSA); format: cell-based, Staphylococcus aureus; details: ATCC 33591, 18 h
Experimental: as §1

S. aureus ATCC 12598 = format: cell-based, Staphylococcus aureus; details: ATCC 12598, 18 h
Experimental: as §1

S. aureus ATCC 6538 = format: cell-based, Staphylococcus aureus; details: ATCC 6538, 18 h
Experimental: as §1

S. aureus ATCC 9144 = format: cell-based, Staphylococcus aureus; details: ATCC 9144, 18 h
Experimental: as §1

[2] = tested on: Enterococcus faecium ATCC 700221; format: cell-based; details: ATCC 700221, 18 h
Experimental: as §1

[3] = tested on: Pseudomonas aeruginosa ATCC 9027; format: cell-based; details: ATCC 9027, 18 h
Experimental: as §1

[4] = tested on: Klebsiella aerogenes ATCC 13048; format: cell-based; details: ATCC 13048, 18 h
Experimental: as §1

[5] = tested on: Klebsiella pneumoniae ATCC 700603; format: cell-based; details: ATCC 700603, 18 h
Experimental: as §1

[6] = tested on: human red blood cells (hRBCs); experiment: Hemolysis assay; details: for MHC5 (minimum hemolytic concentration causing 5% hemolysis of hRBCs): 4% (v/v) erythrocytes in PBS, peptides 1–512 µg/mL, 1 h at 37 °C, hemoglobin at 540 nm
Experimental: To facilitate a comparison of hemolytic activity between the analogs, MHC5 values were determined. MHC5 is the minimum hemolytic concentration of the compounds that caused the 5% hemolysis of hRBCs.
Briefly, the fresh hRBCs with EDTA as anticoagulant were rinsed three times with PBS through centrifugation at 800× g for 10 min and resuspended in PBS. The serial dilution of peptides (1–512 µg/mL) was prepared in PBS on 96-well plates. Then, the stock RBCs solution was added to the plates to reach a final volume of 100 µL with a 4% concentration of erythrocytes (v/v). The control wells for 0 (RBCs in PBS) and 100% (RBCs in 1% Triton-X 100) hemolysis were also prepared. Then, the plates were incubated for 1 h at 37 °C and centrifuged at 800× g for 10 min at 4 °C (Sorvall ST 16R Centrifuge, Thermo Scientific, Waltham, MA, USA). After centrifugation, the supernatant was carefully transferred to new microtiter plates and the release of hemoglobin was measured at 540 nm (Multiskan™ GO Microplate Spectrophotometer, Thermo Scientific, Waltham, MA, USA). The percentage of hemolysis was calculated based on wells with 100% hemolysis.

[7] = 18 h
[8] = 100% = 1% Triton-X 100, ≥ means less than 5% hemolysis up to 512 µg/mL
[9] = fresh batch of blood (footnote a)

Structure (SMILES) | MIC S. aureus 25923 (S. aureus ATCC 25923) | MIC S. aureus 33591 [1] | MIC S. aureus 12598 (S. aureus ATCC 12598) | MIC S. aureus 6538 (S. aureus ATCC 6538) | MIC S. aureus 9144 (S. aureus ATCC 9144) | MIC E. faecium [2] | MIC P. aeruginosa [3] | MIC K. aerogenes [4] | MIC K. pneumoniae [5] | MHC5 (minimum hemolytic concentration causing 5% hemolysis of hRBCs) [6, 8] | MIC A. baumannii [7] | Hemolytic effect over the studied concentration range ([6]; hRBCs, concentration range up to 512 µg/mL, significant = >5% hemolysis) | MHC5 (minimum hemolytic concentration causing 5% hemolysis of hRBCs) [6, 9]
CCCCCCCC(=O)N[C@@H](CCCCN)C(=O)N[C@@H](CCCNC(=N)N)C(=O)N[C@H](C(=O)N[C@H](C(=O)N[C@@H](CCC(N)=O)C(=O)N[C@@H](CCCNC(=N)N)C(=O)N[C@H](C(=O)N[C@@H](CCCCN)C(=O)N[C@@H](CC(=O)O)C(=O)N[C@@H](Cc1ccccc1)C(=O)N[C@@H](CC(C)C)C(=O)N[C@@H](CCCNC(=N)N)C(N)=O)[C@@H](C)CC)C(C)C)[C@@H](C)CC [II, C8^α-KR12-NH2] (Octanoyl-KRIVQRIKDFLR-NH2) | 4 mg/L (≈ 2.36 µM) | 4 mg/L (≈ 2.36 µM) | 4 mg/L (≈ 2.36 µM) | 2 mg/L (≈ 1.18 µM) | 4 mg/L (≈ 2.36 µM) | 4 mg/L (≈ 2.36 µM) | 16 mg/L (≈ 9.43 µM) | 4 mg/L (≈ 2.36 µM) | 8 mg/L (≈ 4.71 µM) | 64 µg/mL | 8 mg/L (≈ 4.71 µM) |  | 
CC[C@H](C)[C@H](NC(=O)[C@H](CCCNC(=N)N)NC(=O)[C@H](CCC(N)=O)NC(=O)[C@@H](NC(=O)[C@@H](NC(=O)[C@H](CCCNC(=N)N)NC(=O)[C@H](CCCCN)NC(=O)c1ccc(-c2ccccc2)cc1)[C@@H](C)CC)C(C)C)C(=O)N[C@@H](CCCCN)C(=O)N[C@@H](CC(=O)O)C(=O)N[C@@H](Cc1ccccc1)C(=O)N[C@@H](CC(C)C)C(=O)N[C@@H](CCCNC(=N)N)C(N)=O [XXI, 4-Phenylbenzoic acid-KR12-NH2] ({Benzoyl(4-Ph)}-KRIVQRIKDFLR-NH2) | 8 mg/L (≈ 4.57 µM) | 4 mg/L (≈ 2.28 µM) | 4 mg/L (≈ 2.28 µM) | 2 mg/L (≈ 1.14 µM) | 4 mg/L (≈ 2.28 µM) | 2 mg/L (≈ 1.14 µM) | 16 mg/L (≈ 9.14 µM) | 4 mg/L (≈ 2.28 µM) | 8 mg/L (≈ 4.57 µM) | 32 µg/mL | 8 mg/L (≈ 4.57 µM) |  | 
CCCCCCCC(=O)N[C@@H](CCCNC(=N)N)C(=O)N[C@@H](CC(C)C)C(=O)N[C@@H](Cc1ccccc1)C(=O)N[C@@H](CC(=O)O)C(=O)N[C@@H](CCCCN)C(=O)N[C@H](C(=O)N[C@@H](CCCNC(=N)N)C(=O)N[C@@H](CCC(N)=O)C(=O)N[C@H](C(=O)N[C@H](C(=O)N[C@@H](CCCNC(=N)N)C(=O)N[C@@H](CCCCN)C(N)=O)[C@@H](C)CC)C(C)C)[C@@H](C)CC [XII, C8^α-retro-KR12-NH2] (Octanoyl-RLFDKIRQVIRK-NH2) | 32 mg/L (≈ 18.9 µM) | 32 mg/L (≈ 18.9 µM) | 32 mg/L (≈ 18.9 µM) | 8 mg/L (≈ 4.71 µM) | 32 mg/L (≈ 18.9 µM) | 8 mg/L (≈ 4.71 µM) | 64 mg/L (≈ 37.7 µM) | 256 mg/L (≈ 151 µM) | 128 mg/L (≈ 75.4 µM) | ≥512 µg/mL | 64 mg/L (≈ 37.7 µM) |  | 
CCCCCCCC(=O)NCCCC[C@H](NC(=O)[C@@H](NC(=O)[C@H](CCCNC(=N)N)NC(=O)[C@H](CCC(N)=O)NC(=O)[C@@H](NC(=O)[C@@H](NC(=O)[C@H](CCCNC(=N)N)NC(=O)[C@@H](N)CCCCN)[C@@H](C)CC)C(C)C)[C@@H](C)CC)C(=O)N[C@@H](CC(=O)O)C(=O)N[C@@H](Cc1ccccc1)C(=O)N[C@@H](CC(C)C)C(=O)N[C@@H](CCCNC(=N)N)C(N)=O [VIII, [Lys^ε(C8)]^8KR12-NH2] (H-KRIVQRIK(Octanoyl)DFLR-NH2) | 32 mg/L (≈ 18.9 µM) | 32 mg/L (≈ 18.9 µM) | 32 mg/L (≈ 18.9 µM) | 4 mg/L (≈ 2.36 µM) | 16 mg/L (≈ 9.43 µM) | 8 mg/L (≈ 4.71 µM) | 64 mg/L (≈ 37.7 µM) | 32 mg/L (≈ 18.9 µM) | 32 mg/L (≈ 18.9 µM) | 64 µg/mL | 8 mg/L (≈ 4.71 µM) |  | 
CCCC(=O)NCCCC[C@H](NC(=O)CCC)C(=O)N[C@@H](CCCNC(=N)N)C(=O)N[C@H](C(=O)N[C@H](C(=O)N[C@@H](CCC(N)=O)C(=O)N[C@@H](CCCNC(=N)N)C(=O)N[C@H](C(=O)N[C@@H](CCCCN)C(=O)N[C@@H](CC(=O)O)C(=O)N[C@@H](Cc1ccccc1)C(=O)N[C@@H](CC(C)C)C(=O)N[C@@H](CCCNC(=N)N)C(N)=O)[C@@H](C)CC)C(C)C)[C@@H](C)CC [X, C4^α, C4^ε-KR12-NH2] (Butyryl-K(Butyryl)RIVQRIKDFLR-NH2) | 128 mg/L (≈ 74.8 µM) | 512 mg/L (≈ 299 µM) | 512 mg/L (≈ 299 µM) | 32 mg/L (≈ 18.7 µM) | 256 mg/L (≈ 150 µM) | 32 mg/L (≈ 18.7 µM) | >512 mg/L | 256 mg/L (≈ 150 µM) | 512 mg/L (≈ 299 µM) |  | 128 mg/L (≈ 74.8 µM) | did not induce any significant hemolysis (>5%) | 
CC[C@H](C)[C@H](NC(=O)[C@H](CCCNC(=N)N)NC(=O)[C@H](CCC(N)=O)NC(=O)[C@@H](NC(=O)[C@@H](NC(=O)[C@H](CCCNC(=N)N)NC(=O)[C@H](CCCCN)NC(=O)CCCc1ccccc1)[C@@H](C)CC)C(C)C)C(=O)N[C@@H](CCCCN)C(=O)N[C@@H](CC(=O)O)C(=O)N[C@@H](Cc1ccccc1)C(=O)N[C@@H](CC(C)C)C(=O)N[C@@H](CCCNC(=N)N)C(N)=O [XVIII, 4-Phenylbutanoic acid-KR12-NH2] ({Butanoyl(4-Ph)}-KRIVQRIKDFLR-NH2) | 32 mg/L (≈ 18.6 µM) | 16 mg/L (≈ 9.32 µM) | 32 mg/L (≈ 18.6 µM) | 32 mg/L (≈ 18.6 µM) | 8 mg/L (≈ 4.66 µM) | 8 mg/L (≈ 4.66 µM) | 64 mg/L (≈ 37.3 µM) | 32 mg/L (≈ 18.6 µM) | 16 mg/L (≈ 9.32 µM) |  | 4 mg/L (≈ 2.33 µM) |  | 128 ^a µg/mL
CCCCC(CC)C(=O)N[C@@H](CCCCN)C(=O)N[C@@H](CCCNC(=N)N)C(=O)N[C@H](C(=O)N[C@H](C(=O)N[C@@H](CCC(N)=O)C(=O)N[C@@H](CCCNC(=N)N)C(=O)N[C@H](C(=O)N[C@@H](CCCCN)C(=O)N[C@@H](CC(=O)O)C(=O)N[C@@H](Cc1ccccc1)C(=O)N[C@@H](CC(C)C)C(=O)N[C@@H](CCCNC(=N)N)C(N)=O)[C@@H](C)CC)C(C)C)[C@@H](C)CC (some centres unmarked) [XIV, 2-Ethylhexanoic acid-KR12-NH2] (X3-KRIVQRIKDFLR-NH2) | 64 mg/L (≈ 37.7 µM) | 16 mg/L (≈ 9.43 µM) | 32 mg/L (≈ 18.9 µM) | 16 mg/L (≈ 9.43 µM) | 32 mg/L (≈ 18.9 µM) | 4 mg/L (≈ 2.36 µM) | 128 mg/L (≈ 75.4 µM) | 16 mg/L (≈ 9.43 µM) | 16 mg/L (≈ 9.43 µM) |  | 16 mg/L (≈ 9.43 µM) |  | 256 ^a µg/mL
